Reference: PubChem BioAssay (NCI)
“And” between values parts separate entries of the source, which are not always exact repeats. Equal values may be shown once.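 Cultured in 96-well plates, cells were exposed to test compound for 48 hours across five concentrations. Abbreviation: GI50, concentration required for 50% inhibition of growth. At the TGI there is no net growth.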

Columns and labels:
Experiment in all cases: inhibition of tumour cell growth, NCI panel, 48 h
MDA-N = test system: MDA-N
HCC-2998 colon = test system: HCC-2998 colon
HL-60(TB) leukemia = test system: HL-60(TB) leukemia
U251 CNS = test system: U251 CNS
CCRF-CEM leukemia = test system: CCRF-CEM leukemia
SNB-19 CNS = test system: SNB-19 CNS
OVCAR-5 ovarian = test system: OVCAR-5 ovarian
MALME-3M melanoma = test system: MALME-3M melanoma
A498 renal = test system: A498 renal
A549 NSCLC = test system: A549 NSCLC
DLD-1 colon = test system: DLD-1 colon

Row | SMILES | TGI (MDA-N) [µM] | TGI (HCC-2998 colon) | TGI (HL-60(TB) leukemia) | TGI (U251 CNS) [µM] | TGI (CCRF-CEM leukemia) [µM] | TGI (SNB-19 CNS) [µM] | TGI (OVCAR-5 ovarian) [µM] | TGI (MALME-3M melanoma) [µM] | TGI (A498 renal) [µM] | TGI (A549 NSCLC) [µM] | TGI (DLD-1 colon) | GI50 (HCC-2998 colon) [µM] | GI50 (U251 CNS) [µM] | GI50 (CCRF-CEM leukemia) [µM] | GI50 (SNB-19 CNS) [µM] | GI50 (DLD-1 colon) [µM] | GI50 (OVCAR-5 ovarian) [µM] | GI50 (MALME-3M melanoma) [µM] | GI50 (A549 NSCLC) [µM] | GI50 (HL-60(TB) leukemia)
1 | CCn1c2ccccc2c2cc(NC(=O)c3c(C)[nH]c(=O)[nH]c3=S)ccc21 | > 100 | > 100 µM | > 100 µM | > 100 | > 100 | > 100 | 68.2 | > 100 | > 100 | – | – | – | – | – | – | – | – | – | – | –
2 | COc1cccc(C2c3cc4c(cc3OC(N3CCOCC3)C2C)OCO4)c1 (stereo unspecified) | 10.7 | – | – | – | – | > 100 | 71.4 | > 100 | – | 51.9 | – | – | – | – | – | – | – | – | – | –
3 | COc1cccc2c1C(=O)c1c(O)c3c(c(O)c1C2=O)C[C@](O)(C(=O)CO)CC3OC1CC(N)C(OC2CCCCO2)C(C)O1 (stereo partly specified) | – | 3.25 µM | 0.294 µM | 0.899 | – | 4.16 | 2.17 | 0.705 | 0.766 | 13.3 | 12.5 µM | – | – | – | – | – | – | – | – | –
4 | CCC[CH2][Ge]([CH2]CCC)([CH2]CCC)[O]C(=O)CCl | – | 7.63 µM | – | 16.6 | 17.9 | 22.9 | 26.2 | 12.5 | – | 17.3 | 15.7 µM | 1.32 | 0.889 | 0.406 | 10.8 | 0.122 | 12.3 | 1.14 | 1.01 | –
5 | O=C1/C(=C/c2ccc(Cl)c(Cl)c2)CN(C(=O)CCN2CCOCC2)C/C1=C\c1ccc(Cl)c(Cl)c1 | 0.0441 | 3.56 µM and 2.08 µM | 1.1 µM and 0.632 µM | – | – | – | – | – | – | – | 0.409 µM and 0.785 µM | 0.773 | – | – | – | 0.245 | – | – | – | 0.362 µM and 0.277 µM
